Laboratory results taken from the kinase profiling compilation of Christmann-Franck et al. (2016).

Experiments:
Experiment in all cases: KINOMEscan competition binding
Conditions in all cases: compound 0.1 µM
AXL (human) = AXL (human) (UniProt P30530)
CAMK1D (human) = CAMK1D (human) (UniProt Q8IU85)
CAMK1G (human) = CAMK1G (human) (UniProt Q96NX5)
CAMKK1 (human) = CAMKK1 (human) (UniProt Q8N5S9)
CDK11B (human) = CDK11B (human) (UniProt P21127)
CDK7 (human) = CDK7 (human) (UniProt P50613)
CDK8 (human) = CDK8 (human) (UniProt P49336)
CDKL5 (human) = CDKL5 (human) (UniProt O76039)
CHEK1 (human) = CHEK1 (human) (UniProt O14757)
CHEK2 (human) = CHEK2 (human) (UniProt O96017)
CLK4 (human) = CLK4 (human) (UniProt Q9HAZ1)
[1] = test system: EGFR (human), P00533 [747-751 del / S ins]
FGFR2 (human) = FGFR2 (human) (UniProt P21802)
[2] = test system: FLT3 (human), P36888 [R834Q]
GRK4 (human) = GRK4 (human) (UniProt P32298)
IRAK1 (human) = IRAK1 (human) (UniProt P51617)
[3] = biological target: JAK3 JH1 catalytic (human) (UniProt P52333)
[4] = test system: KIT (human), P10721 [D816H]
[5] = test system: KIT (human), P10721 [V559D]
LYN (human) = LYN (human) (UniProt P07948)
MAP3K13 (human) = MAP3K13 (human) (UniProt O43283)
MAP4K5 (human) = MAP4K5 (human) (UniProt Q9Y4K4)
MAPK11 (human) = MAPK11 (human) (UniProt Q15759)
MAPK13 (human) = MAPK13 (human) (UniProt O15264)
MST4 (human) = MST4 (human) (UniProt Q9P289)
NEK6 (human) = NEK6 (human) (UniProt Q9HC98)
PAK1 (human) = PAK1 (human) (UniProt Q13153)
PKN2 (human) = PKN2 (human) (UniProt Q16513)
PKN3 (M.tuberculosis) = PKN3 (M.tuberculosis) (UniProt Q6P5Z2)
PRKCI (human) = PRKCI (human) (UniProt P41743)
PRKD3 (human) = PRKD3 (human) (UniProt O94806)
PRKX (human) = PRKX (human) (UniProt P51817)
[6] = test system: RET (human), P07949 [V804M]
SRPK1 (human) = SRPK1 (human) (UniProt Q96SB4)
STK24 (human) = STK24 (human) (UniProt Q9Y6E0)
STK33 (human) = STK33 (human) (UniProt Q9BYT3)
STK38 (human) = STK38 (human) (UniProt Q15208)
SYK (human) = SYK (human) (UniProt P43405)
TBK1 (human) = TBK1 (human) (UniProt Q9UHD2)
TSSK1B (human) = TSSK1B (human) (UniProt Q9BXA7)
Sequence of TSSK1B (human) (Q9BXA7 whole entry, looked up): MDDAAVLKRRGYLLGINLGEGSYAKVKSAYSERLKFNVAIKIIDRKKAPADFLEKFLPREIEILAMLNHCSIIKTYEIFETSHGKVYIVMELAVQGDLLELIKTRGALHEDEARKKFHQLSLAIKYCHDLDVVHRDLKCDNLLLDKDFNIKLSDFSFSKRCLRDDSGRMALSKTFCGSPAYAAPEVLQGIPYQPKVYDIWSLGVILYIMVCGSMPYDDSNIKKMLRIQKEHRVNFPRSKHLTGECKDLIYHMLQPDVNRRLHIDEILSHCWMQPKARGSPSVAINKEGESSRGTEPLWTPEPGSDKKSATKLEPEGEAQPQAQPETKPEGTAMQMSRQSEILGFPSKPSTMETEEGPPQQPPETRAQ

Sequence of CLK4 (human) (Q9HAZ1 whole entry, looked up): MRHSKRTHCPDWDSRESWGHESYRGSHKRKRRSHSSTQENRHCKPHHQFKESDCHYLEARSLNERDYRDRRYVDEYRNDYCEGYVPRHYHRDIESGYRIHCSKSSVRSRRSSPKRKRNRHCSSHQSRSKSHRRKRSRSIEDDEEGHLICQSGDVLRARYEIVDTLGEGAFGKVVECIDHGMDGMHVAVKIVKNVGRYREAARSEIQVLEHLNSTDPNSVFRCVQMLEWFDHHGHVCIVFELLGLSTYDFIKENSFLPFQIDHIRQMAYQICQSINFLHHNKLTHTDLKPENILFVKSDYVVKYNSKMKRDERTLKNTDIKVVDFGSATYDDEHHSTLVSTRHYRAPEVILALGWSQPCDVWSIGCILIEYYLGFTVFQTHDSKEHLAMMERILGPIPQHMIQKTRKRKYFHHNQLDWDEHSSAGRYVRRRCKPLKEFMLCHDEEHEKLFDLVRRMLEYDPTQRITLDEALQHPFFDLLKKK
Sequence of CHEK1 (human) (O14757 whole entry, looked up): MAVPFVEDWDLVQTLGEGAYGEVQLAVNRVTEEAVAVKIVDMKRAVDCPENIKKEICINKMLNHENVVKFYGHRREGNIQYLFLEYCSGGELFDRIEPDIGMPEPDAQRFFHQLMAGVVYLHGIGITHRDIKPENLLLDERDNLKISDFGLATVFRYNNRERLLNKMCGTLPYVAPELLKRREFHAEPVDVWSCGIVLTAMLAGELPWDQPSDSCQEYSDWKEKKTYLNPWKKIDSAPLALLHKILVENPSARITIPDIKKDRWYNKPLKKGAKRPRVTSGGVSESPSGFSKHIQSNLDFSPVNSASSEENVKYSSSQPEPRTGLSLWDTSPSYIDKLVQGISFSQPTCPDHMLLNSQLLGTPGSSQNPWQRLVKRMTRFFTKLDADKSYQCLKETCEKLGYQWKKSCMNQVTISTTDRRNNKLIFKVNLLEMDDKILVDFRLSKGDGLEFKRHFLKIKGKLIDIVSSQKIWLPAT
Sequence of JAK3 JH1 catalytic (human) (P52333 whole entry, looked up): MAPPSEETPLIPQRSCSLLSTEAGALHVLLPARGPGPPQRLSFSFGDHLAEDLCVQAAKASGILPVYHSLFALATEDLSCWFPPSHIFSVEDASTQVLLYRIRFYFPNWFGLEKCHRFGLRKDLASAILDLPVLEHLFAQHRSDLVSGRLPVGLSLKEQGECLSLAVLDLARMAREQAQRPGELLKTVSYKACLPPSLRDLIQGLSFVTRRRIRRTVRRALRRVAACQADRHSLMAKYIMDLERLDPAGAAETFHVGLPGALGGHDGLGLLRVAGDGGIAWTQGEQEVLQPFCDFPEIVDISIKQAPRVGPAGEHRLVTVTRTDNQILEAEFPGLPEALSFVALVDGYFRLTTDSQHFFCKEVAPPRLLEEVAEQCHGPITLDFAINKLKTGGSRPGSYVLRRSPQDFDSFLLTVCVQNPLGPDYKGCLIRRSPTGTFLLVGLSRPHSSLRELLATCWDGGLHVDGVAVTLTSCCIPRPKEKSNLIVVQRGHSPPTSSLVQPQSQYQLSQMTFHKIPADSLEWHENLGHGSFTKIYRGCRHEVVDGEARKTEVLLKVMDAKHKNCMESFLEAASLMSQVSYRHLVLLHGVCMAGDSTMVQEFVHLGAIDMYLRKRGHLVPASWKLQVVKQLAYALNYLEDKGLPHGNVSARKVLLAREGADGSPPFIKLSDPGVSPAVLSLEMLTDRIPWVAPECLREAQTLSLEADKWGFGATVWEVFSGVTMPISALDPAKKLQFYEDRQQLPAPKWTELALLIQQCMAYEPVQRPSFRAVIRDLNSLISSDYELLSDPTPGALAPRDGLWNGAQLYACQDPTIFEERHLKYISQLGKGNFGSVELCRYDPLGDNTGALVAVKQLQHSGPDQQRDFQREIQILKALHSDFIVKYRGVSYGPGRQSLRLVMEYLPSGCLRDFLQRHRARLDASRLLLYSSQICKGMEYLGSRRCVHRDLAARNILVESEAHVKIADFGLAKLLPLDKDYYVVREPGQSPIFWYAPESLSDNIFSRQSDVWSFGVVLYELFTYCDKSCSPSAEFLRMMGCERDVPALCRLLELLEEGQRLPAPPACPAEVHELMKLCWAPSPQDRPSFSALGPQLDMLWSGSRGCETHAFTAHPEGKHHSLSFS
Sequence of SRPK1 (human) (Q96SB4 whole entry, looked up): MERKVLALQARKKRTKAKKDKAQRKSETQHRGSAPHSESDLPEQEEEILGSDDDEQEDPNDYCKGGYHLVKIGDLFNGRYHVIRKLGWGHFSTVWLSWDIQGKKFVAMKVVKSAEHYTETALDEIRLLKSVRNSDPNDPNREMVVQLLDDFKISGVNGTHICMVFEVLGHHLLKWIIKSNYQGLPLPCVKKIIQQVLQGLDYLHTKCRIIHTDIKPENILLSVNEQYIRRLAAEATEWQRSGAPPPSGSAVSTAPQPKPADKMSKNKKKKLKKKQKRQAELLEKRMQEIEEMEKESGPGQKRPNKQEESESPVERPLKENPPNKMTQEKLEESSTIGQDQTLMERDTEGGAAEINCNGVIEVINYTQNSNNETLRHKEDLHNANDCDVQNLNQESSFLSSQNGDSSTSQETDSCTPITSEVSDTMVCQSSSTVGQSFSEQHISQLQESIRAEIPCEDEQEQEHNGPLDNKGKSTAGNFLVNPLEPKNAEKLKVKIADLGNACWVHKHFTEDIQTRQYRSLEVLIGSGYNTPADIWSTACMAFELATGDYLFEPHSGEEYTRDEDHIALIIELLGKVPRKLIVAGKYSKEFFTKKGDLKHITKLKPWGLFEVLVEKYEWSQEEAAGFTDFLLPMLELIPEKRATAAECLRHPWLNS
Sequence of PRKD3 (human) (O94806 whole entry, looked up): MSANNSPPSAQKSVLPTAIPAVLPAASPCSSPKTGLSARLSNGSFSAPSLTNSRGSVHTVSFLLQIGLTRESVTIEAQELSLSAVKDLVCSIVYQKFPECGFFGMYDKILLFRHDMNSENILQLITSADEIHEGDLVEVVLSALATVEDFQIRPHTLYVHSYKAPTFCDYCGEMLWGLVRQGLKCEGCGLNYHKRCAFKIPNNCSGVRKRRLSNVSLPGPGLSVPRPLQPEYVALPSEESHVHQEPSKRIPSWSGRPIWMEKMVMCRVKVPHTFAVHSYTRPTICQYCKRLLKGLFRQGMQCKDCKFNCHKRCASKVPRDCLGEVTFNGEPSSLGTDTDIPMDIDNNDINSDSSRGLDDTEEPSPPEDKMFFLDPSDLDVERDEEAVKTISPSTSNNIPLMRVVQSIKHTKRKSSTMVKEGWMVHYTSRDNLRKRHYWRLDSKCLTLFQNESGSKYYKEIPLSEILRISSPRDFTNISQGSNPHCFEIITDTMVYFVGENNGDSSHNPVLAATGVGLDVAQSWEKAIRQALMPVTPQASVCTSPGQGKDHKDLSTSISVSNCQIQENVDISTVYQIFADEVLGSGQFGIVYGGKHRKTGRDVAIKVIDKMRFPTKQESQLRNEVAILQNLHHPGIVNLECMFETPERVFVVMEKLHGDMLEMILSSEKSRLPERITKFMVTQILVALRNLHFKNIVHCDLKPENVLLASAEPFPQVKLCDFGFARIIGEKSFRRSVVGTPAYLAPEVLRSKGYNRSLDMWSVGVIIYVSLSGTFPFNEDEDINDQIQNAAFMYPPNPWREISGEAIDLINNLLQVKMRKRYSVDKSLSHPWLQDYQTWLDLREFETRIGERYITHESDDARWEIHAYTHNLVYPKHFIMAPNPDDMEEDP
Sequence of LYN (human) (P07948 whole entry, looked up): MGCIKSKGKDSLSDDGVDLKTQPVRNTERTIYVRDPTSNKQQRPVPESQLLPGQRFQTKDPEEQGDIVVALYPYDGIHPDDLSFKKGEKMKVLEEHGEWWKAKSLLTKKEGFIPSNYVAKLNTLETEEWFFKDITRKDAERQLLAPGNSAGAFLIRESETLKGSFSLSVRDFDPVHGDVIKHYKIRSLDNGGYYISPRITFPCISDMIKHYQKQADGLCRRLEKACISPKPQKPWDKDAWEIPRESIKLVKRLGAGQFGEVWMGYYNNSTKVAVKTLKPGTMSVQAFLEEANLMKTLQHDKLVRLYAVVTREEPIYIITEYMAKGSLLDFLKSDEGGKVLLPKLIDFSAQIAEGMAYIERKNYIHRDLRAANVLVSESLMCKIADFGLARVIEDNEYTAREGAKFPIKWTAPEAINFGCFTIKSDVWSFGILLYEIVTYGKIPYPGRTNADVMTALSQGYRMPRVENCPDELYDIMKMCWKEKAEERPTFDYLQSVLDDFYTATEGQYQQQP
Sequence of CAMKK1 (human) (Q8N5S9 whole entry, looked up): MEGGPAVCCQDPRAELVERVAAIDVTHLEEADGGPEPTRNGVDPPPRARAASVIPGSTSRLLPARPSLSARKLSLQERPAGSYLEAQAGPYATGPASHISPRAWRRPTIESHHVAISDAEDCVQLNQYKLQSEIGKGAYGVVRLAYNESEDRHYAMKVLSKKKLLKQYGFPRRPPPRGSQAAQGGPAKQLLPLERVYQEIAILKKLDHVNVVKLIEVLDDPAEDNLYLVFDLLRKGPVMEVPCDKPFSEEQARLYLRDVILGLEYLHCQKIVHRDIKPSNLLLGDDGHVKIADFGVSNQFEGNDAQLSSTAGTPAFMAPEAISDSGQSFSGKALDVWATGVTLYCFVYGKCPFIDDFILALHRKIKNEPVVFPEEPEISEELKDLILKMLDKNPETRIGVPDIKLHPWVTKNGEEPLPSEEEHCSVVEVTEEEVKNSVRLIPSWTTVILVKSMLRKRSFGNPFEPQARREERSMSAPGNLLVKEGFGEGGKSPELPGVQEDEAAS

## CCc1ccc(C(=O)Nc2cc(CN3CCN(C)CC3)cc(C(F)(F)F)c2)cc1C#Cc1cnc2ccnn2c1
AXL (human)
  kinase still bound, per cent of control: 100%
CAMK1D (human)
  kinase still bound, per cent of control: 84%
CAMK1G (human)
  kinase still bound, per cent of control: 71%
CAMKK1 (human)
  kinase still bound, per cent of control: 69%
CDK11B (human)
  kinase still bound, per cent of control: 100%
CDK7 (human)
  kinase still bound, per cent of control: 100%
CDK8 (human)
  kinase still bound, per cent of control: 76%
CDKL5 (human)
  kinase still bound, per cent of control: 100%
CHEK1 (human)
  kinase still bound, per cent of control: 100%
CHEK2 (human)
  kinase still bound, per cent of control: 100%
CLK4 (human)
  kinase still bound, per cent of control: 100%
[1]
  kinase still bound, per cent of control: 100%
FGFR2 (human)
  kinase still bound, per cent of control: 100%
[2]
  kinase still bound, per cent of control: 100%
GRK4 (human)
  kinase still bound, per cent of control: 97%
IRAK1 (human)
  kinase still bound, per cent of control: 100%
[3]
  kinase still bound, per cent of control: 58%
[4]
  kinase still bound, per cent of control: 81%
[5]
  kinase still bound, per cent of control: 24%
LYN (human)
  kinase still bound, per cent of control: 35%
MAP3K13 (human)
  kinase still bound, per cent of control: 71%
MAP4K5 (human)
  kinase still bound, per cent of control: 100%
MAPK11 (human)
  kinase still bound, per cent of control: 100%
MAPK13 (human)
  kinase still bound, per cent of control: 69%
MST4 (human)
  kinase still bound, per cent of control: 100%
NEK6 (human)
  kinase still bound, per cent of control: 100%
PAK1 (human)
  kinase still bound, per cent of control: 75%
PKN2 (human)
  kinase still bound, per cent of control: 74%
PKN3 (M.tuberculosis)
  kinase still bound, per cent of control: 78%
PRKCI (human)
  kinase still bound, per cent of control: 100%
PRKD3 (human)
  kinase still bound, per cent of control: 97%
PRKX (human)
  kinase still bound, per cent of control: 100%
[6]
  kinase still bound, per cent of control: 80%
SRPK1 (human)
  kinase still bound, per cent of control: 100%
STK24 (human)
  kinase still bound, per cent of control: 100%
STK33 (human)
  kinase still bound, per cent of control: 100%
STK38 (human)
  kinase still bound, per cent of control: 93%
SYK (human)
  kinase still bound, per cent of control: 83%
TBK1 (human)
  kinase still bound, per cent of control: 100%
TSSK1B (human)
  kinase still bound, per cent of control: 95%
